Assay results taken from patent US10028956B2, “Methods of treating various cancers using an AXL/cMET inhibitor in combination with other agents” (Ignyta, Inc., priority 2013, dated 2018).

Molecular target: T1, AXL (Homo sapiens, UniProt P30530)
T1 sequence (P30530 26-894): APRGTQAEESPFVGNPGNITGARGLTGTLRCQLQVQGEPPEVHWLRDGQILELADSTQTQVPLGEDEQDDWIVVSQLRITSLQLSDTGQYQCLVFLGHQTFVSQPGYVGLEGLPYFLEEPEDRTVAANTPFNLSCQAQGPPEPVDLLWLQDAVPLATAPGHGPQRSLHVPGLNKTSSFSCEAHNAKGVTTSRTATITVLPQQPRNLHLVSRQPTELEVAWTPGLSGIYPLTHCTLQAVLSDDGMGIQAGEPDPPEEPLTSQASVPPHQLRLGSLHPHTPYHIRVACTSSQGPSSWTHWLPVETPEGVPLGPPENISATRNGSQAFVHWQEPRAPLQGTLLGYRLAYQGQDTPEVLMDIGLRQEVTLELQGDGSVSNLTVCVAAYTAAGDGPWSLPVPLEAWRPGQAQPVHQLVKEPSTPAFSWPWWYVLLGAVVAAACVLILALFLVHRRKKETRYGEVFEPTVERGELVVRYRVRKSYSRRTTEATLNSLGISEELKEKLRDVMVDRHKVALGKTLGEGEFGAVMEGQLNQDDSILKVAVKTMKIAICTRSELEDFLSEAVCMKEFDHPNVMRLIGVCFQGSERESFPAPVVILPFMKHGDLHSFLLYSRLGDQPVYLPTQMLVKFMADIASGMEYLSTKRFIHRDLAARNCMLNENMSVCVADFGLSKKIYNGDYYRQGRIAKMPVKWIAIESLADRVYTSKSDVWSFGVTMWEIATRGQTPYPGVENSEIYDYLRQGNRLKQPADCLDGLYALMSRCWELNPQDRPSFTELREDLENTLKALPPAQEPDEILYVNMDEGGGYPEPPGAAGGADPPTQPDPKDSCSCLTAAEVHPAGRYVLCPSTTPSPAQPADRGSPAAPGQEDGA
Experiment: Inhibition of AXL phosphorylation in NCI-H1299 NSCL xenografts (PK/PD)
Assay type: in vivo, mice
Parameters: endogenous in cells; host or cells: NCI-H1299 human NSCLC cells (culture; subcutaneous xenograft in mice)
Source text: Female Nu/Nu mice (6-8 weeks, Charles River Laboratory, Wilmington, Mass.) were maintained 5/cage in microisolator units on a standard laboratory diet (Teklad Labchow, Harlan Teklad, Madison, Wis.). Animals were housed under humidity- and temperature-controlled conditions and the light/dark cycle was set at 12-hour intervals. Mice were quarantined at least 1 week prior to experimental manipulation. Experiments were approved (Protocol 03-023) by the Institutional Animal Care and Use Committee of Teva Pharmaceuticals Inc
Briefly, NCI-H1299 NSCL cells (for AXL studies) or GTL-16 gastric carcinoma cells (for c-Met studies) were collected and resuspended in DMEM medium at density of 5×10^7/mL and an aliquot (100 μL) of the cell suspension (5×10^6 cells) was inoculated subcutaneously to the left flank of each mouse with a 23 g needle. […] At indicated time points post dosing, the mice (3 mice at each time point) were sacrificed by decapitation and blood was collected in 1.5 mL microcentrifuge tubes containing 20 μL of heparin sodium (10,000 unit/mL in H2O, Cat^#0210193191, MP Biomedical, Solon, Ohio) and left on ice briefly. The tubes were centrifuged at 20,817×g (Eppendorf Centrifuge 5417R with a FA45-30-11 rotor) for 8 minutes at 4° C. and the plasma was collected and transferred to 1.5 mL microfuge tubes, which were then stored at −80° C. The tumors were excised and weighed, cut into small pieces with a scalpel and placed into a round-bottom 14 mL tube (Cat^#352059, Becton Dickinson, Franklin, N.J.) on ice. Two volumes of FRAK lysis buffer without detergent [10 mM Tris, pH 7.5, 50 mM sodium chloride, 20 mM sodium fluoride, 2 mM sodium pyrophosphate, 0.1% BSA, plus freshly prepared 1 mM activated sodium vanadate, 4 mM DTT, 1 mM PMSF and the protease inhibitor cocktail III (1:100 dilution, Cat^#539134, Calbiochem, La Jolla, Calif.)] were added to 1 volume of tumor (eg, 500 μL FRAK lysis buffer were added to 250 mg tissue). […] The compound levels in both plasma and tumor lysates were measured by LC-MS/MS. […]

`COc1cc2nccc(Oc3ccc(NC(=O)c4cn(C(C)C)c(=O)n(-c5ccc(F)cc5)c4=O)cc3F)c2cc1OC` [CEP-40783, 3-(4-Fluorophenyl)-1-isopropyl-2,4-dioxo-1,2,3,4-tetrahydropyrimidine-5-carboxylic acid [4-(6,7-dimethoxyquinolin-4-yloxy)-3-fluorophenyl]-amide] was tested. Which “inhibition of AXL phosphorylation (target inhibition)” value (0.3 mg/kg, 6 h post dose) did it give?
The value was about 80%.

And the “inhibition of AXL phosphorylation (target inhibition)” value (1 mg/kg, between 6-24 h)?
Its value is over 90%.

And the “inhibition of AXL phosphorylation” value (10 mg/kg po, up to 48 h post dosing)?
Its value is “complete AXL inhibition”.
